Tests used:
Format in all cases: in vivo
[1] = tested on: Cowpea Aphid (Aphis craccivora); assay: B.1 Cowpea aphid spray test on potted cowpea plants; settings: in comparison with untreated controls, population reduction assessed after 24, 72 and 120 hours
Method: B.1 Cowpea Aphid (Aphis craccivora)
The active compounds were formulated in 50:50 (v/v) acetone:water. The test solution was prepared at the day of use. Potted cowpea plants colonized with approximately 100-150 aphids of various stages were sprayed after the pest population has been recorded. Population reduction was assessed after 24, 72, and 120 hours.

[2] = tested on: Mediterranean Fruitfly (Ceratitis capitata); assay: B.2 Mediterranean fruitfly microtiter diet test, egg and larval mortality; settings: 120 h, in comparison with untreated controls, egg and larval mortality after 5 days
Method: B.2 Mediterranean Fruitfly (Ceratitis capitata)
(§1) For evaluating control of Mediterranean fruitfly (Ceratitis capitata) the test unit consisted of microtiter plates containing an insect diet and 50-80 C. capitata eggs. The compounds were formulated using a solution containing 75% v/v water and 25% v/v DMSO. Different concentrations of formulated compounds were sprayed onto the insect diet at 5 μl, using a custom built micro atomizer, at two replications. After application, microtiter plates were incubated at about 28±1° C. and about 80±5% relative humidity for 5 days. Egg and larval mortality was then visually assessed.

[3] = tested on: Orchid Thrips (Dichromothrips corbetti); assay: B.4 Orchid thrips floral-immersion test; settings: 96 h, in comparison with untreated controls, after 4 days
Method: B.4 Orchid Thrips (Dichromothrips Corbetti)
Dichromothrips corbetti adults used for bioassay are obtained from a colony maintained continuously under laboratory conditions. For testing purposes, the test compound is diluted to a concentration of 300 ppm (wt compound: vol diluent) in a 1:1 mixture of acetone:water (vol:vol), plus 0.01% vol/vol Kinetic® surfactant. Thrips potency of each compound is evaluated by using a floral-immersion technique. Plastic petri dishes are used as test arenas. All petals of individual, intact orchid flowers are dipped into treatment solution and allowed to dry. Treated flowers are placed into individual petri dishes along with 10-15 adult thrips. The petri dishes are then covered with lids. All test arenas are held under continuous light and a temperature of about 28° C. for duration of the assay. After 4 days, the numbers of live thrips are counted on each flower, and along inner walls of each petri dish. The level of thrips mortality is extrapolated from pre-treatment thrips numbers.

[4] = tested on: Silverleaf Whitefly (Bemisia argentifolii); assay: B.5 Silverleaf whitefly test on sprayed cotton plants; settings: 72 h, in comparison with untreated controls, 3 days after treatment
Method: B.5 Silverleaf Whitefly (Bemisia argentifolii)
The active compounds were formulated in cyclohexanone as a 10,000 ppm solution supplied in 1.3 ml ABgene® tubes. These tubes were inserted into an automated electrostatic sprayer equipped with an atomizing nozzle and they served as stock solutions for which lower dilutions were made in 50% acetone:50% water (v/v). A nonionic surfactant (Kinetic®) was included in the solution at a volume of 0.01% (v/v). Cotton plants at the cotyledon stage (one plant per pot) were sprayed by an automated electrostatic plant sprayer equipped with an atomizing spray nozzle. The plants were dried in the sprayer fume hood and then removed from the sprayer. Each pot was placed into a plastic cup and 10 to 12 whitefly adults (approximately 3-5 days old) were introduced. The insects were collected using an aspirator and 0.6 cm, nontoxic Tygon® tubing (R-3603) connected to a barrier pipette tip. The tip, containing the collected insects, was then gently inserted into the soil containing the treated plant, allowing insects to crawl out of the tip to reach the foliage for feeding. Cups were covered with a reusable screened lid (150-micron mesh polyester screen PeCap from Tetko, Inc.). Test plants were maintained in a growth room at 25° C. and 20-40% relative humidity for 3 days, avoiding direct exposure to fluorescent light (24 hour photoperiod) to prevent trapping of heat inside the cup. Mortality was assessed 3 days after treatment, compared to untreated control plants.

[5] = tested on: Southern Armyworm (Spodoptera eridania); assay: B.6 Southern armyworm test on sprayed lima bean plants; settings: 96 h, in comparison with untreated controls, 4 days after treatment
Method: B.6 Southern Armyworm (Spodoptera eridania)
The active compounds were formulated in cyclohexanone as a 10,000 ppm solution supplied in 1.3 ml ABgene® tubes. These tubes were inserted into an automated electrostatic sprayer equipped with an atomizing nozzle and they served as stock solutions for which lower dilutions were made in 50% acetone:50% water (v/v). A nonionic surfactant (Kinetic®) was included in the solution at a volume of 0.01% (v/v). Lima bean plants (variety Sieva) were grown 2 plants to a pot and selected for treatment at the 1st true leaf stage. Test solutions were sprayed onto the foliage by an automated electrostatic plant sprayer equipped with an atomizing spray nozzle. The plants were dried in the sprayer fume hood and then removed from the sprayer. Each pot was placed into perforated plastic bags with a zip closure. Ten to 11 armyworm larvae were placed into the bag and the bags zipped closed. Test plants were maintained in a growth room at 25° C. and 20-40% relative humidity for 4 days, avoiding direct exposure to fluorescent light (24 hour photoperiod) to prevent trapping of heat inside the bags. Mortality and reduced feeding were assessed 4 days after treatment, compared to untreated control plants.

[6] = tested on: Vetch Aphid (Megoura viciae); assay: B.7 Vetch aphid test on broad bean leaf disks; settings: foliar, 120 h, in comparison with untreated controls, 5 days
Method: B.7 Vetch Aphid (Megoura viciae)
For evaluating control of vetch aphid (Megoura viciae) through contact or systemic means the test unit consisted of 24-well-microtiter plates containing broad bean leaf disks. The compounds were formulated using a solution containing 75% v/v water and 25% v/v DMSO. Different concentrations of formulated compounds were sprayed onto the leaf disks at 2.5 μl, using a custom built micro atomizer, at two replications. After application, the leaf disks were air-dried and 5-8 adult aphids placed on the leaf disks inside the microtiter plate wells. The aphids were then allowed to suck on the treated leaf disks and incubated at about 23±1° C. and about 50±5% relative humidity for 5 days. Aphid mortality and fecundity was then visually assessed.

[7] = tested on: Boll Weevil (Anthonomus grandis); assay: B.9 Boll weevil microtiter diet test, egg and larval mortality; settings: 120 h, in comparison with untreated controls, egg and larval mortality after 5 days
Method: B.9 Boll Weevil (Anthonomus grandis)
as §1, with “of boll weevil (Anthonomus grandis)” for “of Mediterranean fruitfly (Ceratitis capitata)”, “of 24-well-microtiter” for “of microtiter”, “and 20-30 A. grandis” for “and 50-80 C. capitata”, “at 20” for “at 5”, “about 23±1°” for “about 28±1°”, “about 50±5%” for “about 80±5%”

[8] = tested on: Yellow Fever Mosquito (Aedes aegypti); assay: whole plant or invertebrate; settings: 48 h, in comparison with untreated controls, larval mortality after 2 days
Method: B.12 Yellow Fever Mosquito (Aedes aegypti)
For evaluating control of yellow fever mosquito (Aedes aegypti) the test unit consisted of 96-well-microtiter plates containing 200 μl of tap water per well and 5-15 freshly hatched A. aegypti larvae. The compounds or mixtures were formulated using a solution containing 75% water and 25% DMSO. Different concentrations of formulated compounds or mixtures were sprayed onto the insect diet at 2.5 μl, using a custom built micro atomizer, at two replications. After application, microtiter plates were incubated at 28±1° C., 80±5% relative humidity for 2 days. Larval mortality was then visually assessed.

[9] = tested on: Green Soldier Stink Bug (Nezara viridula); assay: B.15 Green soldier stink bug test on sprayed soybean pods; settings: 120 h, in comparison with untreated controls, after 5 days
Method: B.15 Green Soldier Stink Bug (Nezara viridula)
The active compound is dissolved at the desired concentration in a mixture of 1:1 (vol:vol) distilled water:aceteone. Surfactant (Kinetic HV) is added at a rate of 0.01% (vol/vol). The test solution is prepared at the day of use. Soybean pods were placed in microwavable plastic cups lined with moist filter paper and inoculated with ten 3rd instar N. viridula. Using a hand atomizer, an approximately 2 ml solution is sprayed into each cup. Treated cups were kept at about 28-29° C. and relative humidity of about 50-60%. Percent mortality was recorded after 5 days.

[10] = tested on: Green Peach Aphid (Myzus persicae); assay: B.3 Green peach aphid systemic test, artificial diet under membrane; settings: 72 h, concentration of the test solution 2500 mg/L, 3 days
Excerpt: B.3 Green Peach Aphid (Myzus persicae)
For evaluating control of green peach aphid (Myzus persicae) through systemic means the test unit consisted of 96-well-microtiter plates containing liquid artificial diet under an artificial membrane. The compounds were formulated using a solution containing 75% v/v water and 25% v/v DMSO. Different concentrations of formulated compounds were pipetted into the aphid diet, using a custom built pipetter, at two replications. After application, 5-8 adult aphids were placed on the artificial membrane inside the microtiter plate wells. The aphids were then allowed to suck on the treated aphid diet and incubated at about 23±1° C. and about 50±5% relative humidity for 3 days. Aphid mortality and fecundity was then visually assessed.

[11] = tested on: Red Spider Mite (Tetranychus kanzawai); assay: B.10 Red spider mite test on sprayed cowpea beans; settings: in comparison with untreated controls, 72 hours after treatment
Method: B.10 Red Spider Mite (Tetranychus kanzawai)
The active compound is dissolved at the desired concentration in a mixture of 1:1 (vol:vol) distilled water:acetone. Add surfactant (Alkamuls® EL 620) at the rate of 0.1% (vol/vol). The test solution is prepared at the day of use. Potted cowpea beans of 7-10 days of age were cleaned with tap water and sprayed with 5 ml of the test solution using air driven hand atomizer. The treated plants were allowed to air dry and afterwards inculated with 20 or more mites by clipping a cassava leaf section with known mite population. Treated plants were placed inside a holding room at about 25-27° C. and about 50-60% relative humidity. Percent mortality was assessed 72 hours after treatment.

[12] = tested on: Rice brown plant hopper (Nilaparvata lugens); assay: B.11 Rice brown plant hopper test on sprayed rice seedlings; settings: in comparison with untreated controls, after 72 hours
Method: B.11 Rice brown plant hopper (Nilaparvata lugens)
Rice seedlings were cleaned and washed 24 hours before spraying. The active compounds were formulated in 50:50 acetone:water (vol:vol) and 0.1% vol/vol surfactant (EL 620) was added. Potted rice seedlings were sprayed with 5 ml test solution, air dried, placed in cages and inoculated with 10 adults. Treated rice plants were kept at about 28-29° C. and relative humidity of about 50-60%. Percent mortality was recorded after 72 hours.

N#CC(C#N)(Cc1ccc(C(F)(F)F)nc1)c1cccc(F)c1 [II-19]
≥ 75%: mortality at 500 ppm [1] | mortality at 2500 ppm [2] | mortality at 500 ppm [3] | mortality at 500 ppm [4] | mortality at 300 ppm [5] | mortality at 2500 ppm [6] | mortality at 2500 ppm [7] | mortality at 2500 ppm [8] | mortality at 500 ppm [9]

N#CC(C#N)(Cc1ccc(C(F)(F)F)nc1)c1cc(F)c(F)c(F)c1 [II-43]
≥ 75%: mortality at 500 ppm [1] | mortality at 2500 ppm [2] | mortality at 2500 µg/mL [10] | mortality at 500 ppm [3] | mortality at 2500 ppm [6] | mortality at 2500 ppm [7] | mortality at 500 ppm [11] | mortality at 300 ppm [12] | mortality at 2500 ppm [8]

N#CC(C#N)(Cc1cnc(C(F)(F)F)nc1)c1ccccc1 [II-20]
≥ 75%: mortality at 500 ppm [1] | mortality at 2500 ppm [2] | mortality at 2500 µg/mL [10] | mortality at 500 ppm [3] | mortality at 500 ppm [4] | mortality at 2500 ppm [6] | mortality at 2500 ppm [7] | mortality at 500 ppm [11] | mortality at 300 ppm [12] | mortality at 2500 ppm [8] | mortality at 500 ppm [9]

N#CC(C#N)(Cc1ccc(C(F)(F)F)cn1)c1cc(F)c(F)c(F)c1 [II-48]
≥ 75%: mortality at 2500 ppm [2] | mortality at 2500 µg/mL [10] | mortality at 500 ppm [3] | mortality at 2500 ppm [6] | mortality at 2500 ppm [7] | mortality at 300 ppm [12] | mortality at 2500 ppm [8] | mortality at 500 ppm [9]

N#CC(C#N)(Cc1ncc(C(F)(F)F)cn1)c1ccc(F)cc1 [II-17]
≥ 75%: mortality at 500 ppm [1] | mortality at 500 ppm [3] | mortality at 500 ppm [4] | mortality at 500 ppm [5] | mortality at 2500 ppm [6] | mortality at 2500 ppm [7] | mortality at 2500 ppm [8]

CC(c1ccc(C(F)(F)F)cn1)C(C#N)(C#N)c1cc(F)c(F)c(F)c1 (stereo not drawn) [II-61]
≥ 75%: mortality at 500 ppm [1] | mortality at 2500 ppm [2] | mortality at 2500 µg/mL [10] | mortality at 500 ppm [3] | mortality at 2500 ppm [6] | mortality at 2500 ppm [7] | mortality at 300 ppm [12] | mortality at 2500 ppm [8] | mortality at 500 ppm [9]

N#CC(C#N)(Cc1ccc(C(F)(F)F)cn1)c1cc(F)cc(F)c1 [II-38]
≥ 75%: mortality at 500 ppm [1] | mortality at 2500 µg/mL [10] | mortality at 500 ppm [3] | mortality at 500 ppm [4] | mortality at 300 ppm [5] | mortality at 2500 ppm [6] | mortality at 2500 ppm [7] | mortality at 300 ppm [12] | mortality at 2500 ppm [8]

N#CC(C#N)(Cc1cnc(C(F)(F)F)cn1)c1cccc(F)c1 [II-28]
≥ 75%: mortality at 500 ppm [1] | mortality at 500 ppm [3] | mortality at 500 ppm [4] | mortality at 2500 ppm [6] | mortality at 2500 ppm [7] | mortality at 500 ppm [11] | mortality at 2500 ppm [8]

CC(c1ccc(F)cn1)C(C#N)(C#N)c1ccc(F)cc1 (stereo not drawn) [II-9]
≥ 75%: mortality at 2500 µg/mL [10] | mortality at 500 ppm [4] | mortality at 2500 ppm [7] | mortality at 500 ppm [11] | mortality at 300 ppm [12] | mortality at 2500 ppm [8]

N#CC(C#N)(Cc1ccc(F)nc1F)c1ccc(F)cc1 [II-51]
≥ 75%: mortality at 500 ppm [3] | mortality at 500 ppm [11] | mortality at 2500 ppm [8]

C#Cc1ccc(C(C#N)(C#N)Cc2ccc(C(F)(F)F)cn2)cc1 [II-33]
≥ 75%: mortality at 500 ppm [3] | mortality at 500 ppm [11]

N#CC(C#N)(Cc1ccc(C(F)(F)F)nn1)c1ccc(F)cc1 [II-14]
≥ 75%: mortality at 500 ppm [1] | mortality at 2500 µg/mL [10] | mortality at 500 ppm [5] | mortality at 2500 ppm [7]
